Consider nine compounds from patent publication US6440946B1, “Multiple-agents-binding compound, production and use thereof” (Takeda Chemical Industries, Ltd., priority 1999, dated 2002).

In test [1] the target is T1, recombinant HIV protease (Human immunodeficiency virus type 1 group M subtype B, UniProt P12497).
T1 construct: Instead of natural HIV protease, recombinant HIV protease already reported in the literature
Briefly: HIV protease inhibitory activity (cleavage of synthetic nonapeptide substrate, reverse phase HPLC). Particulars: pH5.5, 37° C., 60 minutes; for Inhibition of HIV protease (inhibitory rate) / inhibition at 5 µM: final concentration of Test Compound 5 μM; for inhibition at 5 µM: read-out: Inhibition of HIV protease (inhibitory rate). It counts as biochemical. The protocol:
HIV protease inhibitory activity of the compounds of the present invention [Compounds of Working Examples 1-7] was evaluated according to the test method already reported in the literature (Journal of Synthetic Organic Chemistry, Japan, 52,403-412 (1994), Japanese Patent Unexamined Publication No. 1993-170722, etc.). In addition, using Compounds of Reference Examples 1-4, similar test was carried out.
Instead of natural HIV protease, recombinant HIV protease already reported in the literature (cf. Science, 230, 949 (1985)) was used for the evaluation of HIV protease inhibitory activity (cf. Japanese Patent Unexamined Publication No. 1993-170722, etc.). As the substrate of said recombinant HIV protease, synthetic nonapeptide substrate (Ac-Arg-Ala-Ser-Gln-Asn-Tyr-Pro-Val-Val-NH2 trifluoroacetate) was used, and protease activity was determined.
Fifteen μl of the reaction solution containing 100 mM (final concentration) of MES buffer solution (pH5.5), 40 mM of said substrate, 9.2 μg of said recombinant HIV protease, and various concentration of Test Compound (for example, Test Compound was previously dissolved in DMSO, etc.) was used, and the reaction was started after said recombinant HIV protease had been added to the reaction solution. The reaction was carried out at 37° C. for 60 minutes, and then, the reaction was stopped by addition of 15 μl of acetonitrile. The amount of the peptide fragment produced by cleaving the substrate between -Tyr . . . Pro- of said substrate was determined according to the internal standard method of reverse phase HPLC. When the concentration of test compound was zero, protease activity was defined as 100%; when the peptide fragment was not detected, remaining protease activity was defined as 0%; and remaining protease activity was calculated based on the determined concentration of the peptide fragment. When the remaining protease activity was 0%, inhibition rate which indicates activity inhibiting HIV protease was defined as 100%, and the inhibition rate was defined according to the value taken the remaining protease activity indicated by said percentage from 100%.
(§1) The results of HIV protease inhibitory activity and anti-HIV activity of the compound of the present invention evaluated by the above-mentioned methods were shown in Table 1, together with the results of Compound of Reference Example. In Table 1, HIV protease inhibitory activity is shown as the inhibitory rate when the final concentration of Test Compound in the reaction solution was 5 μM, and the values in parentheses correspond to the inhibitory rate when the final concentration of Test Compound in the reaction solution was 50 nM.

For test [2], the system named is HIV-1 IIIB (HTLV-IIIB) virus in CEMM-SS cells. Briefly: Anti-HIV activity: prevention of death of HIV-infected T cell lymphocytes (MTT method). In kind it is cell-based, HIV type 1 virus. Particulars: 6 days. The protocol: Anti-HIV activity of the compounds of the present invention was evaluated according to the method described below.
The inhibitory effect on virus particle formation of HIV virus with which T cell lymphocytes were infected was evaluated according to ability to prevent T cell lymphocytes infected with said HIV virus from dying.
According to the test method described in the literature (O. S. Weislow et al., J. Natl. Cancer Inst., 81, 577 (1989), etc.), anti-HIV activity of the compounds of the present invention was evaluated. As the T cell lymphocytes, CEMM-SS cells were used. As the HIV virus, HIV-1 IIIB (HTLV-IIIB) virus which is HIV type 1 virus was used. On 96 well microtiter plate containing 200 μl of culture medium (RPMI-1640 medium containing 50 μg/ml of gentamicin and 10% fetal calf serum), determined concentration of Test Compound and HIV-1 IIIB virus (the mount of virus per well is that necessary for completely killing infected cells 6 days after infection), CEMM-SS cell (2.5×10^4 cells/ml) were inoculated and cultivated at 37° C. for 6 days in the incubator containing 5% CO2. Thereafter, the number of living cells was determined by the MTT method (R. Pauwels et al., J. Virol. Methods, 20, 309 (1988), etc.), and the determined value was defined as (ODT)HIV. HIV-non-infected CEMM-SS cells and HIV-infected CEMM-SS cells were respectively cultivated under the same conditions provided that the concentration of Test Compound was zero. Thereafter, the number of living cells was determined, and the respectively determined value was defined as (ODC)MOCK and (ODC)HIV. Using these values, (ODT)HIV, (ODC)MOCK and (ODC)HIV, inhibitory rate, ratio preventing T cell lymphocytes infected with said HIV virus from dying, was calculated according to the following formula:
[(ODT)HIV−(ODC)HIV][/(ODC)MOCK−(ODC)HIV]
Based on EC50 which is the concentration of Test Compound making the calculated inhibitory rate 50%, anti-HIV activity was evaluated.
as §1

Setting [3] is: Human immunodeficiency virus 1, 144 h.
Where [4] appears, read: final concentration of Test Compound 50 nM.

The term EC50 denotes the concentration at which the effect is half-maximal. Lower therefore signals a more potent agent. As to `Cc1ccccc1CNC(=O)[C@H]1N(C(=O)[C@@H](O)[C@H](Cc2ccccc2)NC(=O)CC(C)(C)C(=O)OC[C@H]2O[C@@H](n3cc(C)c(=O)[nH]c3=O)CC2N=[N+]=[N-])CSC1(C)C` (some centres unmarked) [Working Ex. 6], the “Inhibition of HIV protease (inhibitory rate)” value (from here on “Inhibition … (inhibitory rate)”) in test [1] came to 83%. The compound also had an EC50 in test [2] of 0.24 nM.

In test [2] (setting [3]), `Cc1cn([C@H]2C[C@H](N=[N+]=[N-])[C@@H](CO)O2)c(=O)[nH]c1=O` [AZT, 3′-azido-3′-deoxythymidine, reference compound] gave an EC50 of 11 nM.

What is called inhibition is the percentage by which the read-out fell short of the control. `Cc1ccccc1CNC(=O)[C@H]1N(C(=O)[C@@H](O)[C@H](Cc2ccccc2)NC(=O)C(C)C(C)C(=O)OC[C@H]2O[C@@H](n3cc(C)c(=O)[nH]c3=O)CC2N=[N+]=[N-])CSC1(C)C` (stereo partly drawn) [Working Ex. 7, {(2S,5R)-3-azido-5-[5-methyl-2,4-dioxo-3,4-dihydro-1(2H)-pyrimidinyl]tetrahydro-2-furanyl}methyl 4-([(1S,2S)-1-benzyl-3-((4R)-5,5-dimethyl-4-{[(2-methylbenzyl)amino]carbonyl}-1,3-thiazolidin-3-yl)-2-hydroxy-3-oxopropyl]amino}-2,3-dimethyl-4-oxobutanoate]: the inhibition at 0.05 µM in test [1] (pH 5.5, final concentration of Test Compound 50 nM, read-out: Inhibition of HIV protease (inhibitory rate, values in parentheses)) was 39%. In addition, in test [1] (pH 5.5), the inhibition at 5 µM was 96%. In test [2] (setting [3]), this compound yielded an EC50 of 7.3 nM.

Regarding `Cc1ccccc1CNC(=O)[C@@H]1CSCN1C(=O)[C@@H](O)[C@H](Cc1ccccc1)NC(=O)C(C)C(C)C(=O)OC[C@H]1O[C@@H](n2cc(C)c(=O)[nH]c2=O)CC1N=[N+]=[N-]` (stereo partly drawn) [Working Ex. 5, {(2S,5R)-3-azido-5-[5-methyl-2,4-dioxo-3,4-dihydro-1(2H)-pyrimidinyl]tetrahydro-2-furanyl}methyl 4-([(1S,2S)-1-benzyl-2-hydroxy-3-((4R)-4-([(2-methylbenzyl)amino]carbonyl}-1,3-thiazolidin-3-yl)-3-oxopropyl]amino)-2,3-dimethyl-4-oxobutanoate], the inhibition at 5 µM in test [1] (pH 5.5) worked out at 57%. Further, the half-maximal effective concentration (EC50) in test [2] (setting [3]) amounted to 8.9 nM.

For the compound `Cc1ccccc1CNC(=O)[C@@H]1CSCN1C(=O)[C@@H](O)[C@H](Cc1ccccc1)NC(=O)CC(C)(C)C(=O)OC[C@H]1O[C@@H](n2cc(C)c(=O)[nH]c2=O)CC1N=[N+]=[N-]` (some centres unmarked) [Working Ex. 4], the “Inhibition … (inhibitory rate)” value in test [1] turned out to be 11%. Moreover, in test [2], the concentration giving a half-maximal response (EC50) is 3.8 nM.

Regarding `CC(C)(C)NC(=O)[C@@H]1CSCN1C(=O)[C@@H](O)[C@H](Cc1ccccc1)NC(=O)CC(C)(C)C(=O)O` [Ref. Ex. 1, (R)-N-t-butyl-3-[(2S,3S)-3-(3,3-dimethylsuccinyl)amino-2-hydroxy-4-phenylbutyryl]-1,3-thiazolidine-4-carboxamide], the “Inhibition of HIV protease (inhibitory rate, values in parentheses)” value in test [1] (setting [4]) is reported as “(20%)”. Further, in test [1], the “Inhibition … (inhibitory rate)” value is given as 93%.

Consider `CC(C)(C)NC(=O)[C@H]1N(C(=O)[C@@H](O)[C@H](Cc2ccccc2)NC(=O)CC(C)(C)C(=O)O)CSC1(C)C` [Ref. Ex. 2, (R)-N-t-butyl-3-[(2S,3S)-3-(3,3-dimethylsuccinyl)amino-2-hydroxy-4-phenylbutyryl]-5,5-dimethyl-1,3-thiazolidine-4-carboxamide], for which the “Inhibition of HIV protease (inhibitory rate, values in parentheses)” value in test [1] (setting [4]) is given as “(76%)”. The “Inhibition … (inhibitory rate)” value in test [1] is given as 99%.

Turning to `Cc1ccccc1CNC(=O)[C@@H]1CSCN1C(=O)[C@@H](O)[C@H](Cc1ccccc1)NC(=O)CC(C)(C)C(=O)O` [Ref. Ex. 3, (R)-N-(2-methylbenzyl)-3-[(2S,3S)-3-(3,3-dimethylsuccinyl)amino-2-hydroxy-4-phenylbutyryl]-1,3-thiazolidine-4-carboxamide], in test [1], the “Inhibition … (inhibitory rate)” value was 87%.

As to `Cc1ccccc1CNC(=O)[C@H]1N(C(=O)[C@@H](O)[C@H](Cc2ccccc2)NC(=O)CC(C)(C)C(=O)O)CSC1(C)C` [Ref. Ex. 4, (R)-N-(2-methylbenzyl)-3-[(2S,3S)-3-(3,3-dimethylsuccinyl)amino-2-hydroxy-4-phenylbutyryl]-5,5-dimethyl-1,3-thiazolidine-4-carboxamide], the “Inhibition of HIV protease (inhibitory rate, values in parentheses)” value in test [1] (setting [4]) is listed as “(78%)”. In addition, the “Inhibition … (inhibitory rate)” value in test [1] is on record as 100%.
